From patent US20110097310A1, “ANTI-AGING OR ANTIOXIDANT COMPOSITION CONTAINING PLANT STEM CELL LINE DERIVED FROM CAMBIUM OF PANAX GINSENG” (UNHWA CORPORATION, priority 2008, published 2011) come the findings set out here.

The experiment relates to MMP-1. Description: Inhibition of MMP-1 expression caused by UVB radiation in NHF cells. In kind it is cell-based, human. The conditions noted are these: NHF(p6), 40 mJ UVB, 48 hours, 10 uM positive control; Control UV = 230. Here is the method:
When MMPs are increased due to exposure to UV radiation, the increased MMPs will degrade skin collagen to form skin wrinkles. Thus, in order to examine whether MMP-1 expression that increased due to UV radiation is inhibited by the extract or culture medium of the wild ginseng cambium-derived homogeneous cell line, the following test was carried out.
NHF(p6) cells were dispensed in a 12-well plate at a density of 75,000 cells/well and starved for 24 hours. Then, the cells were radiated with 40 mJ of UVB and treated with varying concentrations of each of the samples for 48 hours. Then, an experiment was carried out using a kit (Amersham, RPN 2610). As a positive control, 10 μM retinoic acid was used.

Regarding `CC1=C(/C=C/C(C)=C/C=C/C(C)=C/C(=O)O)C(C)(C)CCC1` [Retinoic acid, retinoic acid], the “MMP-1 expression, % of control (No UV = 100)” value is listed as 85 % of control.
